Key:
Assay in all cases: relative viability (nuclei count vs DMSO), 5 days (fraction); higher = more cells survive
[1] = compound: CCn1c(-c2nonc2N)nc2cnc(Oc3cccc(NC(=O)c4ccc(OCCN5CCOCC5)cc4)c3)cc21 + CC(=O)c1c(C)c2cnc(Nc3ccc(N4CCNCC4)cn3)nc2n(C2CCCC2)c1=O [Palbociclib] (partner 0.5 µM)
Summary of the method: (§1)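 Lung cancer cell lines in 1536-well plates were dosed by pin tool the day after seeding, either with one drug alone or with a fixed anchor-drug dose plus five library-drug doses (not always all listed) in √10 steps. After 5 days, cells were fixed and their nuclei stained in one step (final 0.05% Triton X-100, 1% formaldehyde, 1 ug/ml Hoechst), then counted on 4× images. Relative viability is the nuclei count in treated wells divided by that in vehicle wells. Values are medians of duplicate plates.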

[2] = compound: CCn1c(-c2nonc2N)nc2cnc(Oc3cccc(NC(=O)c4ccc(OCCN5CCOCC5)cc4)c3)cc21 + C[C@]1(O)C[C@@H](c2nc(-c3ccc4ccc(-c5ccccc5)nc4c3)c3c(N)nccn32)C1 [Linsitinib] (partner 1 µM)
Summary of the method: as §1

[3] = compound: CCn1c(-c2nonc2N)nc2cnc(Oc3cccc(NC(=O)c4ccc(OCCN5CCOCC5)cc4)c3)cc21 + O=C(CCCCCCC(=O)Nc1ccccc1)NO [Vorinostat] (partner 1 µM)
Summary of the method: as §1

[4] = compound: N=C1NC(=O)/C(=C/c2ccc(O)cc2)S1 [Mirin] + C[C@]1(O)C[C@@H](c2nc(-c3ccc4ccc(-c5ccccc5)nc4c3)c3c(N)nccn32)C1 [Linsitinib] (partner 1 µM)
Summary of the method: as §1

| Cell Line | relative viability ([1]; first compound 0.04 µM) | relative viability ([1]; first compound 0.1265 µM) | relative viability ([1]; first compound 0.4 µM) | relative viability ([1]; first compound 1.265 µM) | relative viability ([1]; first compound 4 µM) | relative viability ([2]; first compound 0.04 µM) | relative viability ([2]; first compound 0.1265 µM) | relative viability ([2]; first compound 1.265 µM) | relative viability ([2]; first compound 4 µM) | relative viability ([3]; first compound 0.04 µM) | relative viability ([3]; first compound 0.1265 µM) | relative viability ([3]; first compound 0.4 µM) | relative viability ([3]; first compound 1.265 µM) | relative viability ([3]; first compound 4 µM) | relative viability ([4]; first compound 0.25 µM) | relative viability ([4]; first compound 0.7906 µM) | relative viability ([4]; first compound 2.5 µM) | relative viability ([4]; first compound 7.906 µM) | relative viability ([4]; first compound 25 µM) | relative viability ([2]; first compound 0.4 µM) |
| --- | --- | --- | --- | --- | --- | --- | --- | --- | --- | --- | --- | --- | --- | --- | --- | --- | --- | --- | --- | --- |
| NCI-H1993 | 0.479 | 0.659 | 0.642 | 0.695 | 0.626 | 0.701 | 0.762 | 0.699 | 0.702 | 0.991 | 0.764 | 0.649 | 0.697 | 0.697 | 0.739 | 0.746 | 0.698 | 0.727 | 0.756 | – |
| NCI-H2347 | 0.432 | 0.455 | 0.385 | 0.376 | 0.381 | 0.981 | 0.927 | 0.447 | 0.48 | 0.654 | 0.656 | 0.488 | 0.348 | 0.427 | 0.923 | 1.09 | 0.98 | 0.989 | 0.985 | 0.93 |
| SW 900 | 0.54 | 0.517 | 0.572 | 0.521 | 0.574 | – | – | – | – | 0.651 | 0.602 | 0.76 | 0.61 | 0.621 | – | – | – | – | – | – |
| NCI-H1299 | – | – | – | – | – | 0.987 | 0.858 | 0.47 | 0.769 | – | – | – | – | – | 0.984 | 0.966 | 0.978 | 0.879 | 1.2 | 0.777 |
| NCI-H1563 | – | – | – | – | – | 1.1 | 1.1 | 0.884 | 0.869 | – | – | – | – | – | 1.16 | 1.32 | 1.19 | 1.18 | 1.19 | 1.12 |
| NCI-H1650 | 0.466 | 0.32 | 0.294 | 0.335 | 0.328 | – | – | – | – | 0.666 | 0.59 | 0.562 | 0.596 | 0.528 | – | – | – | – | – | – |
| Calu-6 | – | – | – | – | – | 0.964 | 0.94 | 0.524 | 0.536 | – | – | – | – | – | 0.914 | 0.908 | 0.903 | 0.856 | 0.88 | 0.616 |
| NCI-H1703 | – | – | – | – | – | 0.709 | 0.838 | 0.464 | 0.294 | – | – | – | – | – | 0.797 | 0.353 | 0.967 | – | 0.916 | 0.436 |
| EBC-1 | – | – | – | – | – | 0.852 | 1.09 | 0.79 | 0.876 | – | – | – | – | – | 1.06 | 1.07 | 0.872 | 0.875 | 0.974 | 0.78 |
| NCI-H2342 | 0.467 | 0.52 | 0.554 | 0.52 | 0.553 | – | – | – | – | 0.834 | 0.746 | 0.752 | 0.468 | 0.743 | – | – | – | – | – | – |
| ChaGo-K-1 | 1.08 | 0.896 | 0.846 | 0.907 | 0.928 | – | – | – | – | 1 | 0.684 | 0.514 | 0.536 | 0.55 | – | – | – | – | – | – |
| NCI-H1648 | 0.277 | 0.245 | 0.231 | 0.474 | 0.388 | – | – | – | – | 0.922 | 0.472 | 0.42 | 1.46 | 1 | – | – | – | – | – | – |
| NCI-H522 | 1.18 | 1.13 | 0.853 | 0.909 | 0.827 | – | – | – | – | 1.19 | 0.697 | 0.783 | 0.742 | 0.539 | – | – | – | – | – | – |
| A549 | – | – | – | – | – | 0.726 | 0.662 | 0.178 | 0.319 | – | – | – | – | – | 0.508 | 0.58 | 0.544 | 0.503 | 0.511 | 0.733 |

— the supplement of paper PMC10307832
